In patent US20180169045A1, “AMINO ACID COMPOSITIONS AND METHODS FOR THE TREATMENT OF LIVER DISEASES” (AXCELLA HEALTH INC., priority 2016, published 2018):

What was measured:
[1] = test system: Primary human PMBC derived macrophages; assay: LPS-induced TNFa secretion in primary human monocyte-derived macrophages (ELISA); type: cell-based; set-up: TNFa Measurements Mean (baseline subtracted): unit not given beside the values; settings: for LPS-induced TNFa secretion, in words: primary human monocyte-derived macrophages
Protocol: Isolation of Peripheral Blood Mononuclear Cell (PBMC) Unpurified buffy coats (Research Blood Components) were carefully poured into 50 mL centrifuge tubes and diluted with room temperature Dulbecco's Phosphate Buffered Saline (dPBS) with Calcium and Magnesium (Gibco). Diluted buffy coats were further divided into four total 50 mL centrifuge tubes at 20 mL per tube. Lymphocyte Separation Medium (Corning) was carefully pipetted to the bottom of each centrifuge tube. Mixtures were centrifuged at 850×g for 32 minutes at 20° C. with 0 deceleration and acceleration.
CD14+ cells were selected using EasySep™ Human CD14 Positive Selection Kit II ([…] Technologies). Cells were resuspended in cold EasySep™ Buffer ([…] Technologies) at 1×10^8 cells/mL. A total of 100 uL/mL EasySep™ Human CD14 Positive Selection Cocktail II was added to the cell suspension, mixed, and incubated at room temperature for 10 minutes. A total of 100 uL/mL RapidSpheres were added to the mixture and incubated at room temperature for 3 minutes after mixing, then RoboSep buffer was added to bring up the total volume to 10 mL. The mixture in a 15 mL tube was placed in magnet and incubated at room temperature for 3 minutes. Supernatant was discarded and 10 mL fresh EasySep™ buffer was added to 15 mL tube. The addition of RoboSep buffer, mixing, and discarding of supernatant was repeated two more times.
Negative and positive fractions were centrifuged at 490×g for 5 minutes at 20° C. with acceleration of 9, deceleration of 9, and resuspended in DMEM (Gibco) and 10% Heat Inactivated Fetal Bovine Serum (Atlanta Bio) and Penicillin/Streptomycin. Cells were counted and centrifuged again at 490×g for 5 minutes at 20° C. with acceleration of 9, deceleration of 9. After centrifugation, cell were resuspended in DMEM (Gibco) and 10% Heat Inactivated Fetal Bovine Serum (Atlanta Bio) and Penicillin/Streptomycin containing 500 U/mL […] and plated at 1-2×10^6 cells/mL on 10 cm tissue culture plates. Cells were kept in 37° C., 5% CO2 in between feedings/harvest.
Cells were fed every 3-4 days by removing media and unattached cells, centrifuging at 490×g for 5 minutes at 20 C with acceleration of 9, deceleration of 9, and resuspending in fresh DMEM (Gibco) and 10% Heat Inactivated Fetal Bovine Serum (Atlanta Bio) and Penicillin/Streptomycincontaining 500 U/mL GM-CSF. Resuspended cells were seeded back onto 10 cm tissue culture plates and incubated at 37° C., 5% CO2.
After complete cell attachment, culture supernatant was removed and cultures were washed 1× with 5 mL PBS. A total of 3 mL room temperature Cellstripper was added and cultures were incubated at 37° C., 5% CO2 for approximately 10 minutes until cells were rounded and beginning to detach. Cell scraper was used to completely detach cells from plate. Collected cell were spun down at 490 g for 5 min at room temperature and resuspended in 10% DMSO in Heat Inactivated Fetal Bovine Serum and immediately frozen in −80 C.
Primary human PMBC derived macrophages were seeded on day 0 at 3.0E4 cells per well in 96-well microplates (ThermoFisher) in Dulbecco's Modified Eagle Medium (DMEM) (Gibco) supplemented with penicillin-streptomycin (Hyclone) and 10% heat inactivated fetal bovine serum (HI-FBS) (Atlanta Bio) and incubated overnight at 37° C., 5% CO2. On day 1, cells were washed once with 150 uL per well DPBS (Gibco) and treated with 75 uL of: • a. Amino acid free DMEM (US Biologicals) containing a defined custom amino acid concentration based on the mean physiological concentrations in blood based on values published in the Human Metabolome Database (HMDB), with 6 mM glucose, 1 mM sodium pyruvate, 10 mM HEPES, 0.2% primocin (InVivoGen); or • b. The same medium described above with one amino acid at various concentrations including complete dropout. […]

[2] = test system: Primary human hepatic stellate cells; assay: TNFα-induced MCP-1 secretion in primary human hepatic stellate cells (ELISA); type: cell-based; settings: for MCP-1 chemokine secretion, in words: primary human hepatic stellate cells from two donors, 3 ng/mL TNFα, 12 h
Protocol: Primary human hepatic stellate cells were obtained from Samsara Sciences based on the following criteria for selecting donors: adult age (between 18 and 50 years), normal BMI (>18.5 and <25), and absence of confounding liver disease. Primary human hepatic stellate cells grown in Complete HSC Medium to ˜80% confluence in T75 or T150 flasks below passage 10 were seeded into sterile, collagen I coated, 96-well optical plastic microplates (ThermoScientific, 152036) at 4000 cells per well ([…]) and incubated for 6 hours at 37° C., 5% CO2 in a humidified incubator.
After 6 hours, plates were removed from the incubator and the medium gently pipetted off and washed once with 150 μL per well DPBS. The DPBS was removed and the pretreatment medium (±single amino acid dropout, 1×HMDB DMEM+3% dialyzed FBS+0.2% Primocin, ±supplemental amino acid dose; see experiment for medium composition) was applied to the cells at 150 μL per well. Plates were returned to the incubator overnight, ˜14-15 hours.
After overnight pretreatment, the medium was removed from the cells, and the same pretreatment medium, now supplemented with 3 ng/mL TNFα is applied. Each plate contained 3 ng/mL TNFα in 1× human plasma amino acid (HMDB or PAA) concentration medium, 0 ng/mL in 1×HMDB, and 3 ng/mL TNFα+50 nM Bengamide in 1×HMDB to serve as controls. Plates were incubated for 12 hours at 37° C., 5% CO2.
After 12 hour stimulus with TNFα, supernatant was removed and frozen at −80° C. in two separate aliquots. Plates were washed gently once with DPBS and 100 μL per well of 1×HMDB DMEM+3% dialyzed FBS+0.2% Primocin+10% CCK-8 viability reagent (Dojindo). Plates were incubated for 1 hour at 37° C., 5% CO2.
After 1 hour of incubation, viability was measured on the Synergy plate reader (Absorbance at 977 (test), 900 (reference), and 450 (CCK8) nm). Immediately, the medium was removed and the plates were fixed with 70 μL per well 4% paraformaldehyde in PBS at room temperature for 20 minutes, followed by two 150 μL PBS washes, and stored with 100 μL per well PBS at 4° C. until immunofluorescence staining.
Human CCL2/MCP1 and Human IL-6 were measured by ELISA (Human […] DuoSet ELISA, R&D Systems; Human IL-6 DuoSet ELISA, R&D Systems) at 1/5 and 1/20 dilution in 1× Reagent Diluent (Reagent Ancillary Kit 2, R&D Systems). Data were normalized to the specific per well cell density determined by Hoechst stained nuclei count.

## CC(C)[C@H](N)C(=O)O [Valine, L-Valine]
[1]; Donor 1, Conc. 234 μM (baseline), LPS 0.15 ng/mL
  TNFa Measurements Mean (baseline subtracted): 0
[2]; donor 3, 4684 μM
  Fold Change MCP1 Secretion Normalized Per Cell, Mean: 1.0630
[2]; donor 3, 11710 μM
  Fold Change MCP1 Secretion Normalized Per Cell, Mean: 1.0204
[2]; donor 3, 23420 μM
  Fold Change MCP1 Secretion Normalized Per Cell, Mean: 1.2651
[2]; donor 4, 4684 μM
  Fold Change MCP1 Secretion Normalized Per Cell, Mean: 1.0942
[2]; donor 4, 11710 μM
  Fold Change MCP1 Secretion Normalized Per Cell, Mean: 1.1544
[2]; donor 4, 23420 μM
  Fold Change MCP1 Secretion Normalized Per Cell, Mean: 1.1525
[2]
  MCP-1 chemokine secretion, in words: no significant impact

## N=C(N)NCCC[C@H](N)C(=O)O [Arginine, L-Arginine]
[1]; Donor 1, Conc. 109 μM (baseline), LPS 0.15 ng/mL
  TNFa Measurements Mean (baseline subtracted): 0
[2]
  MCP-1 chemokine secretion, in words: no significant impact

## NC(=O)CC[C@H](N)C(=O)O [Glutamine, L-Glutamine]
[1]; Donor 3, Conc. 749 μM (baseline)
  TNFa Measurements Mean (baseline subtracted): 0
[1]; Donor 2, 0.15 ng/mL LPS
  LPS-induced TNFa secretion, in words: increased
[1]; Donor 3, 0.15 ng/mL LPS
  LPS-induced TNFa secretion, in words: increased
[2]; donor 3, 749 μM
  Fold Change MCP1 Secretion Normalized Per Cell, Mean: 0.7048
[2]; donor 3, 3747 μM
  Fold Change MCP1 Secretion Normalized Per Cell, Mean: 0.6036
[2]; donor 3, 11242 μM
  Fold Change MCP1 Secretion Normalized Per Cell, Mean: 0.6106
[2]; donor 3, 22484 μM
  Fold Change MCP1 Secretion Normalized Per Cell, Mean: 0.6212
[2]; donor 4, 749 μM
  Fold Change MCP1 Secretion Normalized Per Cell, Mean: 0.7782
[2]; donor 4, 3747 μM
  Fold Change MCP1 Secretion Normalized Per Cell, Mean: 0.6639
[2]; donor 4, 11242 μM
  Fold Change MCP1 Secretion Normalized Per Cell, Mean: 0.7129
[2]; donor 4, 22484 μM
  Fold Change MCP1 Secretion Normalized Per Cell, Mean: 0.7039
[2]
  MCP-1 chemokine secretion, in words: reduced MCP1 secretion in both donors but was only statistically significant in one of two donors

## CC(C)C[C@H](N)C(=O)O [Leucine, L-Leucine]
[1]; Donor 2, Conc. 153 μM (baseline), LPS 0.15 ng/mL
  TNFa Measurements Mean (baseline subtracted): 0
[1]; Donor 2, 0.15 ng/mL LPS
  LPS-induced TNFa secretion, in words: increased
[2]; donor 3, 3054 μM
  Fold Change MCP1 Secretion Normalized Per Cell, Mean: 1.1479
[2]; donor 3, 7635 μM
  Fold Change MCP1 Secretion Normalized Per Cell, Mean: 1.3054
[2]; donor 3, 15270 μM
  Fold Change MCP1 Secretion Normalized Per Cell, Mean: 1.1808
[2]; donor 4, 3054 μM
  Fold Change MCP1 Secretion Normalized Per Cell, Mean: 1.5342
[2]; donor 4, 7635 μM
  Fold Change MCP1 Secretion Normalized Per Cell, Mean: 1.7129
[2]; donor 4, 15270 μM
  Fold Change MCP1 Secretion Normalized Per Cell, Mean: 1.5745
[2]
  MCP-1 chemokine secretion, in words: no significant impact

## CC(=O)N[C@@H](CS)C(=O)O [N-acetylcysteine]
[1]; Donor 1, Conc. 0 X (baseline), LPS 0.15 ng/mL
  TNFa Measurements Mean (baseline subtracted): 0
[1]; Donor 1, 0.15 ng/mL LPS
  LPS-induced TNFa secretion, in words: significantly reduced
[1]; Donor 2, 0.15 ng/mL LPS
  LPS-induced TNFa secretion, in words: significantly reduced
[1]; Donor 3, 0.15 ng/mL LPS
  LPS-induced TNFa secretion, in words: significantly reduced
[2]; donor 4, 1000 μM
  Fold Change MCP1 Secretion Normalized Per Cell, Mean: 0.6437
[2]; donor 4, 2500 μM
  Fold Change MCP1 Secretion Normalized Per Cell, Mean: 0.8033
[2]; donor 4, 5000 μM
  Fold Change MCP1 Secretion Normalized Per Cell, Mean: 0.6728
[2]; donor 4, 10000 μM
  Fold Change MCP1 Secretion Normalized Per Cell, Mean: 0.5011
[2]; donor 4, Conc. 5 X
  Fold Change MCP1 Secretion Normalized Per Cell, Mean: 0.6437
[2]; donor 4, Conc. 10 X
  Fold Change MCP1 Secretion Normalized Per Cell, Mean: 0.8033
[2]; donor 4, Conc. 20 X
  Fold Change MCP1 Secretion Normalized Per Cell, Mean: 0.6728
[2]; donor 4, Conc. 40 X
  Fold Change MCP1 Secretion Normalized Per Cell, Mean: 0.5011
[2]
  MCP-1 chemokine secretion, in words: significantly reduced MCP-1 secretion in both donors

## CC[C@H](C)[C@H](N)C(=O)O [Isoleucine, L-Isoleucine]
[1]; Donor 1, Conc. 66 μM (baseline), LPS 0.15 ng/mL
  TNFa Measurements Mean (baseline subtracted): 0
[1]; Donor 2, 0.15 ng/mL LPS
  LPS-induced TNFa secretion, in words: increased
[2]; donor 3, 1328 μM
  Fold Change MCP1 Secretion Normalized Per Cell, Mean: 1.5550
[2]; donor 3, 3320 μM
  Fold Change MCP1 Secretion Normalized Per Cell, Mean: 1.2169
[2]; donor 3, 6639 μM
  Fold Change MCP1 Secretion Normalized Per Cell, Mean: 1.2084
[2]; donor 4, 1328 μM
  Fold Change MCP1 Secretion Normalized Per Cell, Mean: 1.3338
[2]; donor 4, 3320 μM
  Fold Change MCP1 Secretion Normalized Per Cell, Mean: 0.8830
[2]; donor 4, 6639 μM
  Fold Change MCP1 Secretion Normalized Per Cell, Mean: 0.9103
